Key:
[1] = target: PI3Kγ (p110γ) (Homo sapiens, UniProt P48736); assay: cell-free PI3K HTRF assay, PI3Kγ
Description: (§4) Exemplary compounds of the invention were tested for inhibitory activity or potency against class I PI3Ks (p110α/p85α, p110β/p85α, p110δ/p85α and p110γ) using a cell-free based PI3K HTRF assay. This assay was used to detect the formation of the product 3,4,5-inositol triphosphate molecule (PIP3) by displacement of biotin-PIP3 from an energy transfer complex consisting of Europium labeled anti-GST monoclonal antibody, a GST-tagged pleckstrin homology (PH) domain, biotinylated PIP3 and Streptavidin-Allophycocyanin (APC). […] The PIP3 product formed by human PI3-Kinase activity displaces biotin-PIP3 from the complex resulting in a loss of energy transfer and thus a decrease in signal.
(§5) Human class I PI3K isoforms were co-expressed in a Baculovirus infected cell expression system. The PI3K isoforms were assayed in the presence of HEPES (50 mM, pH 7.0), NaN3 (0.02%), BSA (0.01%), orthovanadate (0.1 mM), and DMSO (1%). The exemplary compounds dissolved in DMSO were delivered into the kinase reaction mixture by Acoustic technology (Echo550; nanolitter range), and were pre-incubated for 10 min at room temperature before adding ATP (10 μM) to initiate the reaction. […] The emission ratio is converted into μM PIP3 production based on PIP3 standard curves, and the nonlinear regression to obtain the standard curve and IC50 values are performed using Graphpad Prism software.

[2] = target: T1, BRD4 (BD2) (Homo sapiens, UniProt O60885); assay: AlphaScreen FRET binding assay, BRD4 (BD2); conditions: read-out: IC50 value for the inhibition of BRD4 (BD2)
T1 construct: recombinant human BRD4 (BD2; aa 349-460); purchased Reaction Biology Corporation (contract assay service); host or cells: E. coli
Description: (§1) Exemplary compounds of the invention were tested for inhibitory activity or potency against BRD4 (BD1) and BRD4 (BD2) using AlphaScreen FRET binding assay, and exemplary compounds of the invention were further tested for inhibitory activity or potency against class I PI3Ks (p110α/p85α, p110β/p85α, p110δ/p85α and p110γ) using a cell-free based .P13K HTRF assay. All assays were performed at Reaction Biology Corporation, One Great Valley Parkway, Suite 2, Malvem, Pa.
(§2) Exemplary compounds of the invention were tested for inhibitory activity or potency against BRD4 (BD1) and BRD4 (BD2) using AlphaScreen FRET binding assay. […] Briefly, donor beads coated with streptavidin were incubated with biotinylated histone H4 peptide (residues 1-21) containing KAc (K5/^8/12/16Ac). In the absence of inhibitor, the. His-tagged reader domain of BRD4 binds to KAc-histone H4 peptide, thereby recruiting acceptor beads coated with a nickel chelator. Binding potential is assessed by detecting light emission (520-620 nm) from acceptor beads following laser excitation (680 nm) of a photosensitizer within the donor beads that converts ambient oxygen to singlet oxygen.
(§3) All IC50 values were reported in unites of nM.

[3] = target: T2, BRD4 (BD1) (Homo sapiens, UniProt O60885); assay: AlphaScreen FRET binding assay, BRD4 (BD1); conditions: read-out: IC50 value for the inhibition of BRD4 (BD1)
T2 construct: recombinant human BRD4 (BD1; aa 44-170); purchased Reaction Biology Corporation (contract assay service); host or cells: E. coli
Description: as §1, §2, §3

[4] = target: PI3Kα (p110α/p85α) (Homo sapiens, UniProt P42336); assay: cell-free PI3K HTRF assay, PI3Kα
Description: as §4, §5

[5] = target: PI3Kδ (p110δ/p85α) (Homo sapiens, UniProt O00329); assay: cell-free PI3K HTRF assay, PI3Kδ
Description: as §4, §5

[6] = target: PI3Kβ (p110β/p85α) (Homo sapiens, UniProt P42338); assay: cell-free PI3K HTRF assay, PI3Kβ
Description: as §4, §5

[7] = test system: class I PI3Ks; assay: summary in words of the class I PI3K (and BRD4) results; type: biochemical, human; conditions: for overall activity in words (class I PI3Ks and BRD4): against both divergent targets; for activity against PI3K in words: novel BRD inhibitors without PI3K activity
Description: Exemplary compounds of the invention were tested for inhibitory activity or potency against class I PI3Ks (p110α/p85α, p110β/p85α, p110δ/p85α and p110γ) using a cell-free based PI3K HTRF assay. This assay was used to detect the formation of the product 3,4,5-inositol triphosphate molecule (PIP3) by displacement of biotin-PIP3 from an energy transfer complex consisting of Europium labeled anti-GST monoclonal antibody, a GST-tagged pleckstrin homology (PH) domain, biotinylated PIP3 and Streptavidin-Allophycocyanin (APC). Excitation of Europium in the complex results in an energy transfer to the APC and a fluorescent emission at 665 nm. The PIP3 product formed by human PI3-Kinase activity displaces biotin-PIP3 from the complex resulting in a loss of energy transfer and thus a decrease in signal.
Human class I PI3K isoforms were co-expressed in a Baculovirus infected cell expression system. The PI3K isoforms were assayed in the presence of HEPES (50 mM, pH 7.0), NaN3 (0.02%), BSA (0.01%), orthovanadate (0.1 mM), and DMSO (1%). The exemplary compounds dissolved in DMSO were delivered into the kinase reaction mixture by Acoustic technology (Echo550; nanolitter range), and were pre-incubated for 10 min at room temperature before adding ATP (10 μM) to initiate the reaction. After 30 min at 30° C., the reactions were quenched with a stop solution, incubated overnight with a detection mixture before measuring HTRF (Ex: 320 nm; Em: 615/665 nm). The emission ratio is converted into μM PIP3 production based on PIP3 standard curves, and the nonlinear regression to obtain the standard curve and IC50 values are performed using Graphpad Prism software.
All IC50 values were reported in unites of nM. Empty cells indicate no inhibition or compound activity that could not be fit to an IC50 curve.
Dual inhibitors of class I PI3Ks and BRD4 are rare because class I PI3Ks and BRD4 are two structurally and functionally unrelated targets. […] The unexpected dual inhibitory activity or potency against both divergent targets is attributed to not only the unusual overall shape of the molecules of the present invention (as described in U.S. Pat. No. 9,637,488), but also the specific KAc-mimicking groups selected and their position incorporated into the quinoline ring.

Chain of PI3Kα (p110α/p85α) (P42336 whole entry): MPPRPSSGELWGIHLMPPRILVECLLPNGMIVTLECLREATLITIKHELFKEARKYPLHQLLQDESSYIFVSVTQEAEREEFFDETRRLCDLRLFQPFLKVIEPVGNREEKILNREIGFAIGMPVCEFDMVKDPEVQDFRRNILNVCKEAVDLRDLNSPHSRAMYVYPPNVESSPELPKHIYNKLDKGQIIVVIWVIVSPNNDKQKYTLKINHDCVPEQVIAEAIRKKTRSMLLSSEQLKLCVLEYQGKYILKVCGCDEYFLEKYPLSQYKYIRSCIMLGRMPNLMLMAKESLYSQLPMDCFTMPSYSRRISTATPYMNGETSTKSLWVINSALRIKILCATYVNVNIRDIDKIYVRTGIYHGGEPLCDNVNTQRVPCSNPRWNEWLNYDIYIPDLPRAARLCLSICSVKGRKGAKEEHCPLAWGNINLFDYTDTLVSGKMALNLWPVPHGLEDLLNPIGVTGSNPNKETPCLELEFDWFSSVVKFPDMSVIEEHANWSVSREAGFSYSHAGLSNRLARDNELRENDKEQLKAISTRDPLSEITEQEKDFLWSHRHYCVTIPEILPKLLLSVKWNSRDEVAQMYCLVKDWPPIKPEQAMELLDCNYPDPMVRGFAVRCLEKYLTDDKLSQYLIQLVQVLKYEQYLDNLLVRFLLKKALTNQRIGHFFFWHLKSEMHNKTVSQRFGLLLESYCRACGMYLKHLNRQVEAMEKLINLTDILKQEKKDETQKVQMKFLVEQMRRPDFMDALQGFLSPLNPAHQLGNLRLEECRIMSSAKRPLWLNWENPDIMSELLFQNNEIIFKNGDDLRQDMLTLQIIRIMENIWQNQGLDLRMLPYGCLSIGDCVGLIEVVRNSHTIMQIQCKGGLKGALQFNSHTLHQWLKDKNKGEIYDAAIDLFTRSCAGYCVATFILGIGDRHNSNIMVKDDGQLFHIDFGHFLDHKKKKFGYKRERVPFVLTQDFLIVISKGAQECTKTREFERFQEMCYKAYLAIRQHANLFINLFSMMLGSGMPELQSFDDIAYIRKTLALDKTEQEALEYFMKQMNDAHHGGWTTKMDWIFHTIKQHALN
Chain of PI3Kα (p110α/p85α) (P27986 whole entry partner): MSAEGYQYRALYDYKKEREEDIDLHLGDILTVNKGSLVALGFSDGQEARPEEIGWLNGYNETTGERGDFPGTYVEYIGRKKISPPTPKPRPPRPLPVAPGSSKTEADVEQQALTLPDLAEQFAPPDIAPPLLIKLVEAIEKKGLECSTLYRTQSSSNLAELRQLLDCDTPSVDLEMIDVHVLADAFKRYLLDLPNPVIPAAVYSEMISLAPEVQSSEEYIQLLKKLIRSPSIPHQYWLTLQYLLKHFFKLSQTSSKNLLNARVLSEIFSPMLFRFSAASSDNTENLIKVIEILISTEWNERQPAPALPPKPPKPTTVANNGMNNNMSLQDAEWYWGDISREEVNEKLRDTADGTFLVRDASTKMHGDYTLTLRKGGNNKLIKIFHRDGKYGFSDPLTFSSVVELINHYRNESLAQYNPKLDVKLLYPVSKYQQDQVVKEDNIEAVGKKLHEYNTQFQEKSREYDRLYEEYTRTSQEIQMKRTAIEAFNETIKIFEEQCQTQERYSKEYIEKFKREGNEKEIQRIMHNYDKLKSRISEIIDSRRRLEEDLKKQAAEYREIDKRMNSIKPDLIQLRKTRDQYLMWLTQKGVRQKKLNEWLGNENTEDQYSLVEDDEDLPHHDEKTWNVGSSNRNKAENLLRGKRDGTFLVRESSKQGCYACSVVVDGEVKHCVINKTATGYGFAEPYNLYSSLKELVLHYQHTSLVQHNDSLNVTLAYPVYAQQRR
Chain of PI3Kβ (p110β/p85α) (P42338 whole entry): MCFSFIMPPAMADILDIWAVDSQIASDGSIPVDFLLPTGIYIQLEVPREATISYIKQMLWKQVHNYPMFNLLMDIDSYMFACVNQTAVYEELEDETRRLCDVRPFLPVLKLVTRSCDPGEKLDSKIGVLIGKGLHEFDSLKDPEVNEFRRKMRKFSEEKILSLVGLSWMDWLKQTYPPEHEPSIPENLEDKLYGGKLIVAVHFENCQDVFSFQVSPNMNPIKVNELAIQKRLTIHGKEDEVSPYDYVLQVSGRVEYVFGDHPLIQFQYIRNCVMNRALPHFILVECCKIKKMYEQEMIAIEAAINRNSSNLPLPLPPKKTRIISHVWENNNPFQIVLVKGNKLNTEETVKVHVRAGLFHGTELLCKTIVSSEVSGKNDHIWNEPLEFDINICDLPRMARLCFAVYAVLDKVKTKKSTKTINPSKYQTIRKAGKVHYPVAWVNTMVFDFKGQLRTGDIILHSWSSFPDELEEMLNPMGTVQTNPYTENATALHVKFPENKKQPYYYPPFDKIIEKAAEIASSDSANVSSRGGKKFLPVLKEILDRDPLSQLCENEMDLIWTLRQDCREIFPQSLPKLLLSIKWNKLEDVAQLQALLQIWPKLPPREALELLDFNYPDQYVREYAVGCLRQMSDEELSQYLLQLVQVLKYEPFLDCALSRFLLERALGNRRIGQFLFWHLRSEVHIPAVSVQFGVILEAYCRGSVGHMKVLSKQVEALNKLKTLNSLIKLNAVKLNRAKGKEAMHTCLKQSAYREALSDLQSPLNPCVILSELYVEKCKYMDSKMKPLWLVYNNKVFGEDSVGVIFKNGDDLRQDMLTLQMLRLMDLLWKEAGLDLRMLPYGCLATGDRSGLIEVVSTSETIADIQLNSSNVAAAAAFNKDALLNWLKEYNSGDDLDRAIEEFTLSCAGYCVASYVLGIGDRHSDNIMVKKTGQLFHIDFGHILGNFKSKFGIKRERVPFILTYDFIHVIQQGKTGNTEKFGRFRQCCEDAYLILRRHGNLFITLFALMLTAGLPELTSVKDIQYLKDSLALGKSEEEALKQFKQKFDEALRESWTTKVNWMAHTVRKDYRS
Chain of PI3Kβ (p110β/p85α) (P27986 whole entry partner): as the sequence (P27986 whole entry partner) above
Chain of PI3Kγ (p110γ) (P48736 whole entry): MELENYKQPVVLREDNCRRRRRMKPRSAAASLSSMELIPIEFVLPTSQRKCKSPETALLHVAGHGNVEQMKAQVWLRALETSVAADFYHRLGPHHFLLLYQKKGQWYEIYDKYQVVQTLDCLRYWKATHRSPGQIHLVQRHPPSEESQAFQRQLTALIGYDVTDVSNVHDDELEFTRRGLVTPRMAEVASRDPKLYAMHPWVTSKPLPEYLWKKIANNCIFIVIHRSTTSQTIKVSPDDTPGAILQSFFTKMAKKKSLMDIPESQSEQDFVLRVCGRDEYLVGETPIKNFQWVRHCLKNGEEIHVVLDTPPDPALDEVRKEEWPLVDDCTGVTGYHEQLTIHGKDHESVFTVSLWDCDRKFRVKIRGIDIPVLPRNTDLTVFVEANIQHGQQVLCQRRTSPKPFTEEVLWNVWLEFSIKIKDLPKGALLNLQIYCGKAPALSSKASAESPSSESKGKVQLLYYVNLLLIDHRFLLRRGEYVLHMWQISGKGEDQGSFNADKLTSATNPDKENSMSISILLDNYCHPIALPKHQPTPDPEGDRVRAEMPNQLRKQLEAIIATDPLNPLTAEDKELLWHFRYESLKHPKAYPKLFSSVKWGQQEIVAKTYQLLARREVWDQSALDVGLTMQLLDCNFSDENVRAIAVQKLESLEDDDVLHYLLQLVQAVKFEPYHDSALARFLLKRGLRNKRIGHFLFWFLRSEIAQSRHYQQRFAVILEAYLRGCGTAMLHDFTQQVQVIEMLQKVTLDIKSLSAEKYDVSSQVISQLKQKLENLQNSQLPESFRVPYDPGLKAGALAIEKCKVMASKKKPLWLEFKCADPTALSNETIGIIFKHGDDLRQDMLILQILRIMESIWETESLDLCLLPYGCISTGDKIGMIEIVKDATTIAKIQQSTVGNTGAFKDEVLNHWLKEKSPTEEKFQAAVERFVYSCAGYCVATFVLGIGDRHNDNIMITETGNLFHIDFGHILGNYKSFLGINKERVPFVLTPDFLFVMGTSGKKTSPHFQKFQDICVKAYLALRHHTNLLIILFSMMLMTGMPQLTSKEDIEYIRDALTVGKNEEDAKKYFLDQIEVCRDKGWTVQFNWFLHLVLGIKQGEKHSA
Chain of PI3Kδ (p110δ/p85α) (O00329 whole entry): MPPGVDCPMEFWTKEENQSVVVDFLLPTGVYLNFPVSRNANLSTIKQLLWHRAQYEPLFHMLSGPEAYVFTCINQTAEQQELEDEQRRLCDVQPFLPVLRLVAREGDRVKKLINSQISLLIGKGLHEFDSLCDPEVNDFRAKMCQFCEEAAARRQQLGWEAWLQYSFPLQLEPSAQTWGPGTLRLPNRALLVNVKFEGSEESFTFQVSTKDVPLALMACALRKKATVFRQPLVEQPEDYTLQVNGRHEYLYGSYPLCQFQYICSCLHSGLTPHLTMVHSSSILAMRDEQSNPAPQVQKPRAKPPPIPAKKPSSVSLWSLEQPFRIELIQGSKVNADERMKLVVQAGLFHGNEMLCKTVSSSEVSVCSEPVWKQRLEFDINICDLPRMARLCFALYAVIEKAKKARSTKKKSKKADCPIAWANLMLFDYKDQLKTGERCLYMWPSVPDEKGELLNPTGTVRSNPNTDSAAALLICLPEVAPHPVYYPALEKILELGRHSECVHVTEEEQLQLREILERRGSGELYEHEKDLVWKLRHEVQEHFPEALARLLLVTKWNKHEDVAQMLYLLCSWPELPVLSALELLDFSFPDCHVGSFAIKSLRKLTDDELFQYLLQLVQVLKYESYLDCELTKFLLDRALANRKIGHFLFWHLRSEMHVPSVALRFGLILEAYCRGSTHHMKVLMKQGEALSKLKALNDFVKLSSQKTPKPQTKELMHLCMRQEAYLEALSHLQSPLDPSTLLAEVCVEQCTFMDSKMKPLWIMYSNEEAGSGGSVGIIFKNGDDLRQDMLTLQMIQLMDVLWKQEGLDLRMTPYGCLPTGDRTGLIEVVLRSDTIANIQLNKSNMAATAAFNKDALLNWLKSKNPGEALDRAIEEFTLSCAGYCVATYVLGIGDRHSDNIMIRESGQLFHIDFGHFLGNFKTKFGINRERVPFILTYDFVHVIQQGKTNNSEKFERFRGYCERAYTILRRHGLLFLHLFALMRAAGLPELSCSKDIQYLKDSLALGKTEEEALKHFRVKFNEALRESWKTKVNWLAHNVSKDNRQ
Chain of PI3Kδ (p110δ/p85α) (P27986 whole entry partner): as the sequence (P27986 whole entry partner) above

Row | Compound | IC50 [1] [nM] | IC50 [2] [nM] | IC50 [3] [nM] | IC50 [4] [nM] | IC50 [5] [nM] | IC50 [6] [nM] | overall activity in words (class I PI3Ks and BRD4) [7] | activity against PI3K in words [7]
1 | Cc1cc(-c2ccc(F)c3cc(C4CCCN4c4nc(N)nc(N)c4C#N)c(N4CCOCC4)nc23)cn(C)c1=O (stereo not drawn) [Compound 17] | > 10000 | 745 | – | – | – | – | – | –
2 | Cc1cc(-c2cccc3cc(C4CCCN4c4ncnc(N)c4C#N)c(N(C)C)nc23)cn(C)c1=O (stereo not drawn) [Compound 19] | 79.8 | 19.3 | 23.9 | 535 | 3.04 | 596 | – | –
3 | Cc1cc(-c2c(F)ccc3cc(C4CCCN4c4nc(N)nc(N)c4C#N)c(N4CCOCC4)nc23)cn(C)c1=O (stereo not drawn) [Compound 13] | > 10000 | 12.4 | 799 | – | – | – | inactive | –
4 | Cc1cc(-c2c(F)ccc3cc(C4CCCN4c4nc(N)nc5[nH]cnc45)c(N4CCOCC4)nc23)cn(C)c1=O (stereo not drawn) [Compound 14] | – | 4210 | > 10000 | – | – | – | – | –
5 | Cc1cc(-c2cccc3cc(C4CCCN4c4ncnc(N)c4C#N)c(-c4cccnc4)nc23)cn(C)c1=O (stereo not drawn) [Compound 29] | 19.2 | 46.6 | 37.9 | 867 | 1.23 | 263 | – | –
6 | Cn1cc(-c2cccc3cc(CNc4nc(N)nc(N)c4C#N)c(N4CCOCC4)nc23)c2cc[nH]c2c1=O [Compound 25] | 16.7 | 20.7 | 55.3 | 20.5 | 1.98 | 43.3 | – | –
7 | Cc1nnc2ccc(-c3cccc4cc(C5CCCN5c5ncnc(N)c5C#N)c(N5CCOCC5)nc34)nn12 (stereo not drawn) [Compound 10] | – | – | 3980 | – | 30.5 | – | – | –
8 | Cc1nnc2ccc(N3CCN(c4nc5cc(F)ccc5cc4C4CCCN4c4ncnc(N)c4C#N)CC3)nn12 (stereo not drawn) [Compound 4, 4-amino-6-(2-(7-fluoro-2-(4-(3-methyl-[1,2,4]triazolo[4,3-b]pyridazin-6-yl)piperazin-1-yl)quinolin-3-yl)pyrrolidin-1-yl)pyrimidine-5-carbonitrile] | – | – | 8000 | – | 0.66 | – | – | –
9 | CC(C)Nc1nc2c(-c3cn(C)c(=O)c4[nH]ccc34)cccc2cc1C1CCCN1c1ncnc(N)c1C#N (stereo not drawn) [Compound 22] | 171 | 74.5 | 636 | 544 | 19.3 | 3550 | – | –
10 | Cc1cc(-c2cccc3cc(C4CCCN4c4ncnc(N)c4C#N)c(N4CCOCC4)nc23)cn(C)c1=O (stereo not drawn) [Compound 11] | 56.6 | 86 | 24 | 247 | 5.34 | 567 | – | –
11 | Cn1cc(-c2ccc3cc(C4CCCN4c4ncnc(N)c4C#N)c(N4CCOCC4)nc3c2)c2cc[nH]c2c1=O (stereo not drawn) [Compound 6] | – | – | 3.5 | – | – | – | – | PI3K-inactive
12 | Cc1cc(-c2cccc3cc(C4CCCN4c4ncnc(N)c4C#N)c(-c4ccccc4)nc23)cn(C)c1=O (stereo not drawn) [Compound 28] | 11.7 | 148 | 446 | 1020 | 1.56 | 354 | – | –
13 | Cn1cc(-c2cccc3cc(C4CCCN4c4ncnc(N)c4C#N)c(N4CCOCC4)nc23)c2cc[nH]c2c1=O (stereo not drawn) [Compound 12] | – | – | 35 | – | 5 | – | – | –
14 | Cc1cc(-c2ccc(F)c3cc(C4CCCN4c4ncnc(N)c4C#N)c(N4CCOCC4)nc23)cn(C)c1=O (stereo not drawn) [Compound 16] | – | 4970 | – | – | – | – | inactive | –
15 | Cc1cc(-c2cccc3cc([C@@H]4CCCN4c4ncnc(N)c4C#N)c(N4CCOCC4)nc23)cn(C)c1=O [Compound 23] | 13 | 12.9 | 26.7 | 153 | 0.73 | 191 | – | –
16 | Cn1cc(-c2cccc3cc([C@@H]4CCCN4c4nc(N)nc(N)c4C#N)c(N4CCOCC4)nc23)c2cc[nH]c2c1=O [Compound 24] | 1.43 | 9.07 | 12.5 | 18.2 | 0.938 | 53.9 | – | –
17 | Cc1noc(C)c1-c1cccc2cc(C3CCCN3c3ncnc(N)c3C#N)c(N3CCOCC3)nc12 (stereo not drawn) [Compound 9] | – | – | 9460 | – | 3.25 | – | – | –
18 | Cc1cc(-c2ccc3cc(C4CCCN4c4ncnc(N)c4C#N)c(N4CCOCC4)nc3c2)cn(C)c1=O (stereo not drawn) [Compound 8] | – | 7.7 | 28 | – | – | – | – | PI3K-inactive
19 | Cn1cc(-c2cccc3cc(C4CCCN4c4nc(N)nc(N)c4C#N)c(N4CCOCC4)nc23)c2cc[nH]c2c1=O (stereo not drawn) [Compound 21] | 2 | 18.1 | 24.8 | 53.7 | 3.68 | 118 | – | –
20 | Cc1cc(-c2cccc3cc(C4CCCN4c4ncnc(N)c4C#N)c(N4CCCCC4)nc23)cn(C)c1=O (stereo not drawn) [Compound 18] | 39.2 | 85.2 | 84.5 | 4270 | 1.89 | 874 | – | –
21 | Cc1nnc2ccc(-c3ccc4cc(C5CCCN5c5ncnc(N)c5C#N)c(N5CCOCC5)nc4c3)nn12 (stereo not drawn) [Compound 7] | – | – | 694 | – | – | – | – | –
22 | Cc1cc(-c2c(F)ccc3cc(C4CCCN4c4ncnc(N)c4C#N)c(N4CCOCC4)nc23)cn(C)c1=O (stereo not drawn) [Compound 15] | – | 680 | 1250 | – | – | – | – | –
23 | Cc1noc(C)c1-c1nc2c(C)cccc2cc1C1CCCN1c1ncnc(N)c1C#N (stereo not drawn) [Compound 3, 4-amino-6-(2-(2-(3,5-dimethylisoxazol-4-yl)-8-methylquinolin-3-yl)pyrrolidin-1-yl)pyrimidine-5-carbonitrile] | – | – | – | – | 0.523 | – | – | –
